Laboratory results from US20260256792A1, “TREATMENT OF CHRONIC SPONTANEOUS URTICARIA BY ADMINISTERING (R)-2-[3-[4-AMINO-3-(2-FLUORO-4-PHENOXY-PHENYL)PYRAZOLO[3,4-D]PYRIMIDIN-1-YL]PIPERIDINE-1-CARBONYL]-4-METHYL-4-[4-(OXETAN-3-YL)PIPERAZIN-1-YL]PENT-2-ENENITRILE” (priority 2023, published 2026).

System: moderate-to-severe chronic spontaneous urticaria (CSU)
Experiment: Phase 2 CSU study: itch severity score over 7 days (ISS7)
Type: in vivo, human
Details: for ISS7 Median / ISS7 Mean (SD): End of Study
From the text: The study comprises a 12 week, randomized, double-blind, placebo-controlled, multi-center, dose-ranging efficacy and safety phase, followed by a 40 week open label extension (OLE) phase (see FIG. 1). The study consists of three phases and an optional OLE phase. […] Clinically, CSU is characterized by the spontaneous and recurrent appearance of pruritic hives. The proposed primary endpoints were the UAS7 at Week 12 in EU and EU reference countries and the ISS7 in the US. Regardless of where a participant was from, all assessments were the same. The UAS7 score is a composite score containing both the HSS7 and the ISS7. This allowed a global assessment of the two key components of urticaria: hives and itch. […] The UAS is a validated PRO measure. […] The daily UAS scores range from 0 to 6 point/day. […] Patients were to complete the UAS using the e-diary. […] The following secondary endpoints were to be analyzed using the same approach as for the primary endpoint: • Change from baseline in UAS7 at Week 4 • Change from baseline in UAS7 at Week 12 (for US and US reference countries) • Change from baseline in ISS7 at Week 12 (except US and US reference countries) • Change from baseline in HSS7 at Week 12

[1] = 400 mg TID, Prior Omalizumab Use
[2] = ITT Population, 400 mg BID, Week 2
[3] = ITT Population, 400 mg QPM, Week 3
[4] = ITT Population, 400 mg QPM, Week 5
[5] = ITT Population, 400 mg TID, Week 1
[6] = ITT Population, 400 mg TID, Week 12
[7] = ITT population, 400 mg BID, Week 1
[8] = ITT population, 400 mg BID, Week 3
[9] = ITT population, 400 mg BID, Week 4
[10] = ITT population, 400 mg BID, Week 5
[11] = ITT population, 400 mg BID, Week 6
[12] = ITT population, 400 mg BID, Week 7
[13] = ITT population, 400 mg BID, Week 8
[14] = ITT population, 400 mg BID, Week 9
[15] = ITT population, 400 mg BID, Week 10
[16] = ITT population, 400 mg BID, Week 11
[17] = ITT population, 400 mg BID, Week 12
[18] = ITT population, 400 mg QPM, Week 1
[19] = ITT population, 400 mg QPM, Week 2

## CC(C)(C=C(C#N)C(=O)N1CCC[C@@H](n2nc(-c3ccc(Oc4ccccc4)cc3F)c3c(N)ncnc32)C1)N1CCN(C2COC2)CC1 [rilzabrutinib, (R)-2-[3-[4-amino-3-(2-fluoro-4-phenoxy-phenyl)pyrazolo[3,4-d]pyrimidin-1-yl]piperidine-1-carbonyl]-4-methyl-4-[4-(oxetan-3-yl)piperazin-1-yl]pent-2-enenitrile]
400 mg QPM, Omalizumab-Naïve
  ISS7 Median: 2.00
400 mg TID, Omalizumab-Naïve
  ISS7 Mean (SD): 11.40 (6.11)
[1]
  ISS7 Mean (SD): 9.50 (6.36)
  ISS7 Median: 9.50
[2]
  Imputed non-responder n (%) (ISS7 reduction of 5 points or more): 2 (4.9) n (%)
  Non-responder n (%) (ISS7 reduction of 5 points or more): 19 (46.3) n (%)
  OR for rilzabrutinib vs. placebo (ISS7 reduction of 5 points or more): 2.693
  RRD (%) for rilzabrutinib vs. placebo (ISS7 reduction of 5 points or more): 23.6%
  Responder n (%) (ISS7 reduction of 5 points or more): 22 (53.7) n (%)
[3]
  Imputed non-responder n (%) (ISS7 reduction of 5 points or more): 0 n (%)
  Non-responder n (%) (ISS7 reduction of 5 points or more): 20 (52.6) n (%)
  OR for rilzabrutinib vs. placebo (ISS7 reduction of 5 points or more): 1.881
  RRD (%) for rilzabrutinib vs. placebo (ISS7 reduction of 5 points or more): 15.9%
  Responder n (%) (ISS7 reduction of 5 points or more): 18 (47.4) n (%)
[4]
  Imputed non-responder n (%) (ISS7 reduction of 5 points or more): 2 (5.3) n (%)
  Non-responder n (%) (ISS7 reduction of 5 points or more): 21 (55.3) n (%)
  OR for rilzabrutinib vs. placebo (ISS7 reduction of 5 points or more): 0.781
  RRD (%) for rilzabrutinib vs. placebo (ISS7 reduction of 5 points or more): 6.2%
  Responder n (%) (ISS7 reduction of 5 points or more): 17 (44.7) n (%)
[5]
  Imputed non-responder n (%) (ISS7 reduction of 5 points or more): 0 n (%)
  Non-responder n (%) (ISS7 reduction of 5 points or more): 14 (34.1) n (%)
  OR for rilzabrutinib vs. placebo (ISS7 reduction of 5 points or more): 6.428
  RRD (%) for rilzabrutinib vs. placebo (ISS7 reduction of 5 points or more): 42.3%
  Responder n (%) (ISS7 reduction of 5 points or more): 27 (65.9) n (%)
[6]
  Imputed non-responder n (%) (ISS7 reduction of 5 points or more): 11 (26.8) n (%)
  Non-responder n (%) (ISS7 reduction of 5 points or more): 18 (43.9) n (%)
  OR for rilzabrutinib vs. placebo (ISS7 reduction of 5 points or more): 1.371
  RRD (%) for rilzabrutinib vs. placebo (ISS7 reduction of 5 points or more): 7.9%
  Responder n (%) (ISS7 reduction of 5 points or more): 23 (56.1) n (%)
[7]
  Imputed non-responder n (%) (ISS7 reduction of 5 points or more): 1 (2.4) n (%)
  Non-responder n (%) (ISS7 reduction of 5 points or more): 21 (51.2) n (%)
  OR for rilzabrutinib vs. placebo (ISS7 reduction of 5 points or more): 3.262
  RRD (%) for rilzabrutinib vs. placebo (ISS7 reduction of 5 points or more): 25.5%
  Responder n (%) (ISS7 reduction of 5 points or more): 20 (48.8) n (%)
[8]
  Imputed non-responder n (%) (ISS7 reduction of 5 points or more): 1 (2.4) n (%)
  Non-responder n (%) (ISS7 reduction of 5 points or more): 19 (46.3) n (%)
  OR for rilzabrutinib vs. placebo (ISS7 reduction of 5 points or more): 2.451
  RRD (%) for rilzabrutinib vs. placebo (ISS7 reduction of 5 points or more): 21.5%
  Responder n (%) (ISS7 reduction of 5 points or more): 22 (53.7) n (%)
[9]
  Imputed non-responder n (%) (ISS7 reduction of 5 points or more): 4 (9.8) n (%)
  Non-responder n (%) (ISS7 reduction of 5 points or more): 19 (46.3) n (%)
  RRD (%) for rilzabrutinib vs. placebo (ISS7 reduction of 5 points or more): 5.6%
  Responder n (%) (ISS7 reduction of 5 points or more): 22 (53.7) n (%)
[10]
  Imputed non-responder n (%) (ISS7 reduction of 5 points or more): 5 (12.2) n (%)
  Non-responder n (%) (ISS7 reduction of 5 points or more): 18 (43.9) n (%)
  RRD (%) for rilzabrutinib vs. placebo (ISS7 reduction of 5 points or more): 2.7%
  Responder n (%) (ISS7 reduction of 5 points or more): 23 (56.1) n (%)
[11]
  Imputed non-responder n (%) (ISS7 reduction of 5 points or more): 4 (9.8) n (%)
  Non-responder n (%) (ISS7 reduction of 5 points or more): 20 (48.8) n (%)
  RRD (%) for rilzabrutinib vs. placebo (ISS7 reduction of 5 points or more): 2.7%
  Responder n (%) (ISS7 reduction of 5 points or more): 21 (51.2) n (%)
[12]
  Imputed non-responder n (%) (ISS7 reduction of 5 points or more): 4 (9.8) n (%)
  Non-responder n (%) (ISS7 reduction of 5 points or more): 19 (46.3) n (%)
  OR for rilzabrutinib vs. placebo (ISS7 reduction of 5 points or more): 1.258
  RRD (%) for rilzabrutinib vs. placebo (ISS7 reduction of 5 points or more): 5.5%
  Responder n (%) (ISS7 reduction of 5 points or more): 22 (53.7) n (%)
[13]
  Imputed non-responder n (%) (ISS7 reduction of 5 points or more): 5 (12.2) n (%)
  Non-responder n (%) (ISS7 reduction of 5 points or more): 16 (39.0) n (%)
  OR for rilzabrutinib vs. placebo (ISS7 reduction of 5 points or more): 1.388
  RRD (%) for rilzabrutinib vs. placebo (ISS7 reduction of 5 points or more): 8.3%
  Responder n (%) (ISS7 reduction of 5 points or more): 25 (61.0) n (%)
[14]
  Imputed non-responder n (%) (ISS7 reduction of 5 points or more): 9 (22.0) n (%)
  Non-responder n (%) (ISS7 reduction of 5 points or more): 19 (46.3) n (%)
  OR for rilzabrutinib vs. placebo (ISS7 reduction of 5 points or more): 1.233
  RRD (%) for rilzabrutinib vs. placebo (ISS7 reduction of 5 points or more): 5.6%
  Responder n (%) (ISS7 reduction of 5 points or more): 22 (53.7) n (%)
[15]
  Imputed non-responder n (%) (ISS7 reduction of 5 points or more): 10 (24.4) n (%)
  Non-responder n (%) (ISS7 reduction of 5 points or more): 22 (53.7) n (%)
  OR for rilzabrutinib vs. placebo (ISS7 reduction of 5 points or more): 0.786
  RRD (%) for rilzabrutinib vs. placebo (ISS7 reduction of 5 points or more): −6.2%
  Responder n (%) (ISS7 reduction of 5 points or more): 19 (46.3) n (%)
[16]
  Imputed non-responder n (%) (ISS7 reduction of 5 points or more): 9 (22.0) n (%)
  Non-responder n (%) (ISS7 reduction of 5 points or more): 19 (46.3) n (%)
  OR for rilzabrutinib vs. placebo (ISS7 reduction of 5 points or more): 0.837
  RRD (%) for rilzabrutinib vs. placebo (ISS7 reduction of 5 points or more): −4.5%
  Responder n (%) (ISS7 reduction of 5 points or more): 22 (53.7) n (%)
[17]
  Imputed non-responder n (%) (ISS7 reduction of 5 points or more): 14 (34.1) n (%)
  Non-responder n (%) (ISS7 reduction of 5 points or more): 21 (51.2) n (%)
  OR for rilzabrutinib vs. placebo (ISS7 reduction of 5 points or more): 1.063
  RRD (%) for rilzabrutinib vs. placebo (ISS7 reduction of 5 points or more): 1.6%
  Responder n (%) (ISS7 reduction of 5 points or more): 20 (48.8) n (%)
[18]
  Imputed non-responder n (%) (ISS7 reduction of 5 points or more): 0 n (%)
  Non-responder n (%) (ISS7 reduction of 5 points or more): 25 (65.8) n (%)
  OR for rilzabrutinib vs. placebo (ISS7 reduction of 5 points or more): 1.855
  RRD (%) for rilzabrutinib vs. placebo (ISS7 reduction of 5 points or more): 12.7%
  Responder n (%) (ISS7 reduction of 5 points or more): 13 (34.2) n (%)
[19]
  Imputed non-responder n (%) (ISS7 reduction of 5 points or more): 0 n (%)
  Non-responder n (%) (ISS7 reduction of 5 points or more): 23 (60.5) n (%)
  OR for rilzabrutinib vs. placebo (ISS7 reduction of 5 points or more): 1.662
  Responder n (%) (ISS7 reduction of 5 points or more): 15 (39.5) n (%)
ITT population, 400 mg QPM, Week 4
  Imputed non-responder n (%) (ISS7 reduction of 5 points or more): 1 (2.6) n (%)
